Measured values as given in ChEMBL document CHEMBL3400149, “Discovery of novel spiro 1,3,4-thiadiazolines as potent, orally bioavailable and brain penetrant KSP inhibitors” (Bioorg Med Chem, 2015).
Blank lines part the entries; values can stand above or below the compound they belong to. The source made the active and inactive calls. The calls are words filed in the database; no cut-off is given here.

How the values were obtained:
[1] = Volume of distribution at steady state in CD1 mouse at 5 mg/kg, iv; format: ADME, organism-based; parameters: dose 5 mg/kg, route intravenous; conditions: in vivo, read-out: Vdss
[2] = Oral bioavailability in CD1 mouse at 5 mg/kg; format: ADME, organism-based; conditions: in vivo
[3] = AUC in Sprague-Dawley rat at 1 mg/kg, iv; format: ADME, organism-based; parameters: dose 1 mg/kg, route intravenous; conditions: plasma
[4] = Half life in CD1 mouse at 5 mg/kg, iv; format: ADME, organism-based; parameters: dose 5 mg/kg, route intravenous; conditions: in vivo
HCT-116 [5] = assay: Induction of mitotic arrest in human HCT116 cells assessed as increase mitosis at 1.6 nM after 24 hrs by propidium iodine staining based FACS analysis; format: functional, cell-based
[6] = Clearance in CD1 mouse at 5 mg/kg, iv; format: ADME, organism-based; parameters: dose 5 mg/kg, route intravenous; conditions: in vivo
[7] = Clearance in Sprague-Dawley rat at 1 mg/kg, iv; format: ADME, organism-based; parameters: dose 1 mg/kg, route intravenous; conditions: in vivo
[8] = target: T1, Kinesin-like protein KIF11 (Homo sapiens, UniProt P52732); assay: Inhibition of KSP in human HCT116 cells assessed as phos-histone H3 level by immunofluorescent assay; format: cell-based, HCT-116
T1 sequence (P52732 whole entry): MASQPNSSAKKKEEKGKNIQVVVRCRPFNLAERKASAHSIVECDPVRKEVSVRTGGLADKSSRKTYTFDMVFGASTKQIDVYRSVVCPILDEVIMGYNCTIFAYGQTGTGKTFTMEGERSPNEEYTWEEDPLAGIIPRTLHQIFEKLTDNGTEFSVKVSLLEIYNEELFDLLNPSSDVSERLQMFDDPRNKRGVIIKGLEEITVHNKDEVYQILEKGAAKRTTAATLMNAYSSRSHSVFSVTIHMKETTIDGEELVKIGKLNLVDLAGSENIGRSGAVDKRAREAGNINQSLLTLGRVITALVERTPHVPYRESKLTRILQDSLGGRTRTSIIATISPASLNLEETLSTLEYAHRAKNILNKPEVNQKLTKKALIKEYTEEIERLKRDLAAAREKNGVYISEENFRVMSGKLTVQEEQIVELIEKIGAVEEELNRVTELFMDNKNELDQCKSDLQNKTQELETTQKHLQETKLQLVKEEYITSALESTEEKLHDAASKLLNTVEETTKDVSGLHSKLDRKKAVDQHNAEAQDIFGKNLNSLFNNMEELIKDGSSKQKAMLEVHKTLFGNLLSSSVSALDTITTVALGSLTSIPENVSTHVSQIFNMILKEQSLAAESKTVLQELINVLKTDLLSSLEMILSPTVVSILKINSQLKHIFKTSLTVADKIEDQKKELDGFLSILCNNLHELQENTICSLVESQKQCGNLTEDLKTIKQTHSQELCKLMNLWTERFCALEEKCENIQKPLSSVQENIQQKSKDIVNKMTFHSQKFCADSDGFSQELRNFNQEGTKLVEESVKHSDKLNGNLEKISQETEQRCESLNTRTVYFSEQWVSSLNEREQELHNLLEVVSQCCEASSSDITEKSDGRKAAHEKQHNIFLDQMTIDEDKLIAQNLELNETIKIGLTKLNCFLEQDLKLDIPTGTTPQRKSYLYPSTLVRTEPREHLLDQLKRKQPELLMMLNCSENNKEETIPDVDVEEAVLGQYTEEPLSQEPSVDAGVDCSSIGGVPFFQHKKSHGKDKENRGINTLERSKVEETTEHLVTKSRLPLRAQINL

[9] = AUC in CD1 mouse at 5 mg/kg, po; format: ADME, organism-based; parameters: dose 5 mg/kg, route oral; conditions: plasma
HCT-116 [10] = assay: Induction of mitotic arrest in human HCT116 cells assessed as increase in […] spindle formation at 6.25 nM after 16 hrs by propidium iodine staining based FACS analysis; format: functional, cell-based
[11] = Oral bioavailability in Sprague-Dawley rat at 50 mg/kg; format: ADME, organism-based; conditions: in vivo
[12] = Cmax in CD1 mouse at 5 mg/kg, po; format: ADME, organism-based; parameters: dose 5 mg/kg, route oral; conditions: in vivo
[13] = AUC in Sprague-Dawley rat at 50 mg/kg, po; format: ADME, organism-based; parameters: dose 50 mg/kg, route oral; conditions: plasma
[14] = Volume of distribution at steady state in Sprague-Dawley rat at 1 mg/kg, iv; format: ADME, organism-based; parameters: dose 1 mg/kg, route intravenous; conditions: in vivo, read-out: Vdss
HCT-116 [15] = assay: Induction of mitotic arrest in human HCT116 cells assessed as increase in 4N DNA content at 1.6 nM after 16 hrs by propidium iodine staining based FACS analysis; format: functional
[16] = Volume of distribution at steady state in beagle dog at 1 mg/kg, iv; format: ADME, organism-based, Canis lupus familiaris; parameters: dose 1 mg/kg, route intravenous; conditions: in vivo, read-out: Vdss
[17] = Half life in beagle dog at 1 mg/kg, iv; format: ADME, organism-based, Canis lupus familiaris; parameters: dose 1 mg/kg, route intravenous; conditions: in vivo
[18] = Cmax in Sprague-Dawley rat at 50 mg/kg, po; format: ADME, organism-based; parameters: dose 50 mg/kg, route oral; conditions: in vivo
[19] = AUC in beagle dog at 1 mg/kg, iv; format: ADME, organism-based, Canis lupus familiaris; parameters: dose 1 mg/kg, route intravenous; conditions: plasma
[20] = Half life in Sprague-Dawley rat at 1 mg/kg, iv; format: ADME, organism-based; parameters: dose 1 mg/kg, route intravenous; conditions: in vivo
[21] = AUC in CD1 mouse at 5 mg/kg, iv; format: ADME, organism-based; parameters: dose 5 mg/kg, route intravenous; conditions: plasma
[22] = Cmax in beagle dog at 5 mg/kg, po; format: ADME, organism-based, Canis lupus familiaris; parameters: dose 5 mg/kg, route oral; conditions: in vivo
[23] = Retention time of the compound; format: physicochemical
[24] = Clearance in beagle dog at 1 mg/kg, iv; format: ADME, organism-based, Canis lupus familiaris; parameters: dose 1 mg/kg, route intravenous; conditions: in vivo
[25] = AUC in beagle dog at 5 mg/kg, po; format: ADME, organism-based, Canis lupus familiaris; parameters: dose 5 mg/kg, route oral; conditions: plasma
[26] = Oral bioavailability in beagle dog at 5 mg/kg; format: ADME, organism-based, Canis lupus familiaris; conditions: in vivo
[27] = AUC in Sprague-Dawley rat at 10 mg/kg, po; format: ADME, organism-based; parameters: dose 10 mg/kg, route oral; conditions: plasma
[28] = AUC ratio of drug uptake from brain to plasma in rat; format: ADME
[29] = Cmax in CD1 mouse at 10 mg/kg, po; format: ADME, organism-based; parameters: dose 10 mg/kg, route oral; conditions: in vivo
[30] = Oral bioavailability in beagle dog at 10 mg/kg; format: ADME, organism-based, Canis lupus familiaris; conditions: in vivo
[31] = Permeability across basolateral to apical side in human Caco2 cells; format: ADME, cell-based; conditions: Caco-2, read-out: permeability
[32] = Antitumor activity against human COLO205 cells xenografted in mouse assessed as tumor growth inhibition at 7.5 mg/kg, po q3d measured on day 35; format: functional; conditions: COLO 205, 840 h
[33] = Oral bioavailability in monkey; format: ADME, organism-based, Macaca mulatta; conditions: rhesus monkey, in vivo
[34] = Antitumor activity against human U373 cells xenografted in mouse assessed as tumor growth inhibition at 7.5 mg/kg, po q3d measured on day 35; format: functional, U-373MG ATCC; conditions: 840 h
[35] = AUC in beagle dog at 10 mg/kg, po; format: ADME, organism-based, Canis lupus familiaris; parameters: dose 10 mg/kg, route oral; conditions: plasma
[36] = Oral bioavailability in Sprague-Dawley rat at 10 mg/kg; format: ADME, organism-based; conditions: in vivo
[37] = Antitumor activity against human COLO205 cells xenografted in mouse assessed as tumor growth inhibition at 5 mg/kg, po q3d measured on day 35; format: functional; conditions: COLO 205, 840 h
[38] = Permeability across apical to basolateral side in human Caco2 cells; format: ADME, cell-based; conditions: Caco-2, read-out: permeability
[39] = AUC ratio of drug uptake from brain to plasma in mouse; format: ADME, organism-based
[40] = Antitumor activity against human U373 cells xenografted in mouse assessed as tumor growth inhibition at 5 mg/kg, po q3d measured on day 35; format: functional, U-373MG ATCC; conditions: 840 h
[41] = Cmax in beagle dog at 10 mg/kg, po; format: ADME, organism-based, Canis lupus familiaris; parameters: dose 10 mg/kg, route oral; conditions: in vivo
[42] = Cmax in Sprague-Dawley rat at 10 mg/kg, po; format: ADME, organism-based; parameters: dose 10 mg/kg, route oral; conditions: in vivo
[43] = Oral bioavailability in CD1 mouse at 10 mg/kg; format: ADME, organism-based; conditions: in vivo
[44] = AUC in CD1 mouse at 10 mg/kg, po; format: ADME, organism-based; parameters: dose 10 mg/kg, route oral; conditions: plasma

Structure (SMILES): CC(=O)N1N=C(c2cc(F)ccc2F)S[C@@]12c1ccccc1OC[C@H]2CCN
Vd [1]: 6.4 L/kg | bioavailability [2]: 12% | AUC [3]: 0.8 µM·h | half-life [4]: 1.8 h | Activity (HCT-116 [5]): Active | clearance [6]: 90 mL/min/kg | clearance [7]: 46 mL/min/kg | EC50 [8]: 2 nM | AUC [9]: 0.3 µM·h | Activity (HCT-116 [10]): Active | bioavailability [11]: 9% | Cmax [12]: 100 nM | AUC [13]: 3.6 µM·h | Vd [14]: 8.6 L/kg | Activity (HCT-116 [15]): 70% | Vd [16]: 3.9 L/kg | half-life [17]: 3.9 h | Cmax [18]: 600 nM | AUC [19]: 3 µM·h | half-life [20]: 2 h | AUC [21]: 2.3 µM·h | Cmax [22]: 300 nM | Retention_time [23]: 4.08 min | clearance [24]: 13.7 mL/min/kg | AUC [25]: 1.4 µM·h | bioavailability [26]: 9%

Structure (SMILES): CNCCCC(=O)N1N=C(c2cc(F)ccc2F)SC12CCOc1ccccc12 (centres undefined)
EC50 [8]: 367 nM

Structure (SMILES): O=C(CO)N1N=C(c2cc(F)ccc2F)SC12CCOc1ccccc12 (centres undefined)
EC50 [8]: 615 nM

Structure (SMILES): CCC(=O)N1N=C(c2cc(F)ccc2F)SC12CCOc1ccccc12 (centres undefined)
EC50 [8]: 452 nM

Structure (SMILES): CC(=O)N1N=C(c2cc(F)ccc2F)S[C@@]12c1ccccc1OC[C@@H]2CCN
EC50 [8]: 11 nM | Retention_time [23]: 5.4 min

Structure (SMILES): CC(=O)N1N=C(c2cc(F)ccc2F)S[C@@]12c1cc(F)c(F)cc1OC[C@H]2CCN
AUC [3]: 0.8 µM·h | AUC [27]: 2.5 µM·h | clearance [6]: 42 mL/min/kg | clearance [7]: 49 mL/min/kg | Kp [28]: 4 | Cmax [29]: 1030 nM | bioavailability [30]: 44% | EC50 [8]: 3 nM | Papp B→A [31]: 11.5 ×10⁻⁶ cm/s | inhibition in vivo at 7.5 mg/kg [32]: 126% | bioavailability [33]: 53% | inhibition in vivo at 7.5 mg/kg [34]: 69% | AUC [35]: 6.9 µM·h | bioavailability [36]: 64% | inhibition in vivo at 5 mg/kg [37]: 116% | Papp A→B [38]: 10.6 ×10⁻⁶ cm/s | Kp [39]: 4 | inhibition in vivo at 5 mg/kg [40]: 31% | AUC [19]: 3.1 µM·h | Cmax [41]: 500 nM | AUC [21]: 4.6 µM·h | clearance [24]: 12 mL/min/kg | Cmax [42]: 220 nM | bioavailability [43]: 87% | AUC [44]: 7.9 µM·h

Structure (SMILES): CC(=O)N1N=C(c2cc(F)ccc2F)S[C@@]12c1cc(F)ccc1OC[C@H]2CCN
AUC [3]: 0.37 µM·h | AUC [27]: 0.15 µM·h | clearance [6]: 76 mL/min/kg | clearance [7]: 109 mL/min/kg | Cmax [29]: 770 nM | EC50 [8]: 1 nM | bioavailability [36]: 8% | AUC [21]: 2.6 µM·h | Cmax [42]: 17 nM | bioavailability [43]: 64% | AUC [44]: 3.3 µM·h

Structure (SMILES): CC(=O)N1N=C(c2cc(F)ccc2F)SC12CCCOc1ccccc12 (centres undefined)
EC50 [8]: > 1000 nM

More lines, in order of falling EC50 [8], values ahead:

EC50 [8]: 665 nM
Structure (SMILES): COCC(=O)N1N=C(c2cc(F)ccc2F)SC12CCOc1ccccc12 (centres undefined)

EC50 [8]: 338 nM
Structure (SMILES): NCCCC(=O)N1N=C(c2cc(F)ccc2F)SC12CCOc1ccccc12 (centres undefined)

EC50 [8]: 246 nM
Structure (SMILES): CC(=O)N1N=C(c2cc(F)ccc2F)SC12COc1ccccc12 (centres undefined)

EC50 [8]: 179 nM
Structure (SMILES): CC(=O)N1N=C(c2cc(F)ccc2F)SC12CCNc1ccccc12 (centres undefined)

EC50 [8]: 17 nM
Structure (SMILES): CC(=O)N1N=C(c2cc(F)ccc2F)S[C@@]12c1cc(Cl)ccc1OC[C@H]2CCN

clearance [6]: 136 mL/min/kg | Cmax [29]: 430 nM | EC50 [8]: 5 nM | AUC [21]: 1.5 µM·h | bioavailability [43]: 46% | AUC [44]: 1.3 µM·h
Structure (SMILES): CC(=O)N1N=C(c2cc(F)ccc2F)S[C@@]12c1cccc(F)c1OC[C@H]2CCN
